In patent publication EP4782449A1, “TRICYCLIC PYRIDINE COMPOUND ACTING AS SARM1 ENZYME ACTIVITY INHIBITOR, AND USE THEREOF” (Artivila (ShenZhen) Innovation Center, Ltd., priority 2023, dated 2025):
Where two headings read alike, the source gives them in different places.

Legend:
SARM1 = molecular target: T1, SARM1 (Homo sapiens, UniProt Q6SZW1); experiment: In vitro biochemical assay for inhibiting SARM1 enzyme activity (PC6 fluorescence, NADase); conditions: full-length SARM1 from transfected HEK293 cells, 50 µM NAD, 50 µM PC6, 50 µM NMN activator, room temperature, 30 minutes
T1 construct: inventors produced full-length SARM1 for NAD enzyme activity experiments, and used it for screening; His (C); made in house; host or cells: HEK293 cells, transient transfection; supernatant of digitonin lysate, no further purification described
T1 sequence (Q6SZW1 28-724): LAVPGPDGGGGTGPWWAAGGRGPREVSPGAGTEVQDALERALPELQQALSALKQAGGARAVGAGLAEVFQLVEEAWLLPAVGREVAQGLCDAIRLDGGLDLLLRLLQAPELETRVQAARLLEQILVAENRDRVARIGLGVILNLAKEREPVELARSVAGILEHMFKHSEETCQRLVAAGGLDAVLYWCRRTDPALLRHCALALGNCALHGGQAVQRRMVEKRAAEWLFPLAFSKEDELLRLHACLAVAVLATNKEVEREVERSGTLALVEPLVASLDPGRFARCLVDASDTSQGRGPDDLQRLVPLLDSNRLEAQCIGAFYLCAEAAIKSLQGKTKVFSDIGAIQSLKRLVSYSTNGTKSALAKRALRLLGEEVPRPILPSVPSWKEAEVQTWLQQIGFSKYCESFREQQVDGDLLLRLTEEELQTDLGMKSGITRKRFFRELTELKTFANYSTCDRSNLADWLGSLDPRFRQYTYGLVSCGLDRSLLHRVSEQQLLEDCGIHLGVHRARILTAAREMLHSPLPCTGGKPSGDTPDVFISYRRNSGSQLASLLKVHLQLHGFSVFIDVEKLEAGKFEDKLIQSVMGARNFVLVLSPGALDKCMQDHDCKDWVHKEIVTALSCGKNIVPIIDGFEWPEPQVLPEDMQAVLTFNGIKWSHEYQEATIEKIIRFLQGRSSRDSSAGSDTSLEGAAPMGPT
Method: The gene sequence of SARM1 protein was amplified using PCR, and the PCR amplification product was constructed into pcDNA3.1-HIS-C plasmid. The above construction was completed by YouBio(Hunan, China). HEK293 cells were cultured in 10 cm dishes using DMEM, and the cells were transfected with 15 μg pcDNA3.1-SARM[…]-C expression plasmid on the following day. Cells were collected 48 hours after transfection, and SARM1 protein expressed in the cells was obtained by digitonin lysis for in vitro activity assay experiments. The specific procedure was as follows: Cells were digested with trypsin-EDTA, then centrifuged at 1000 rpm for 5 minutes, washed once with PBS, and then resuspended in PBS containing 100 μM digitonin, with 0.6 mL PBS for the cells in per 10 cm dish, and lysed for 5 minutes. […] Then the supernatant containing SARM1 protein was collected by centrifugation at 5000 rpm for 10 minutes. […] A group without inhibitor was used as control group. All mixtures were incubated at room temperature for 10 minutes. Then, 50 μM NAD and 50 μM PC6 as substrates and 50 μM NMN as an activator were added to the SARM1 protein incubated with the inhibitor, and the reaction was carried out at room temperature for 30 minutes. The concentrations of each component were the final concentrations in the reaction system. […] Finally, the reaction rate was used to represent the protein activity and calculate the half-maximal inhibitory concentration.

[1] = test system: dorsal root ganglion explants; experiment: Axonal Wallerian degeneration assay in mouse DRG explant culture; assay type: cell-based, C57BL/6 male mice; conditions: 10 µM test compound, 2 hours pretreatment, axons transected, images at 0 hour and 24 hours
Excerpt: The experimental method was based on Gerdts J et al. (Gerdts J, Sasaki Y, Vohra B, Marasa J, Milbrandt J. Image-based screening identifies novel roles for IkappaB kinase and glycogen synthase kinase 3 in axonal degeneration. J Biol Chem. 2011 Aug 12;286(32):28011-8).
Dorsal root ganglia were dissected from 2-month-old C57BL/6 male mice and placed in 35 mm culture dishes containing pre-cooled HBSS buffer. Excess tissue from each dorsal root ganglion was removed and cut into 2-3 explants using a scalpel, and the explants were planted in wells of a 96-well plate coated with 100 ng/mL Matrigel (Corning). 100 µL of DRG culture medium (Neurobasal medium (Gibco) containing 2% B-27 (Gibco), 1% GlutaMax (Gibco), and 10 ng/mL NGF (MCE)) was added, then cultured in a 37°C incubator for one week, with medium change on day 4, and experiments were performed on day 8.
0.1 µL of 10 mM test compound was dissolved in 100 µL DRG culture medium to prepare new culture medium containing 10 µM test compound. The culture medium in the 96-well plate was aspirated and new culture medium containing the test compound was added. Then the dorsal root ganglion explants were incubated with the medium in a 37°C incubator for 2 hours for pre-protection. After 2-hour pretreatment, a glass electrode was used to transect axons in the area near the tissue block, and bright-field images of axons in the same area were captured at 0 hour and 24 hours post axonal degeneration using a 20x objective lens of a microscope (Olympus). Axonal integrity was evaluated using an in-house developed script.

Row | Compound | IC50 (SARM1; read-out: IC50) | Degree of Protection Against Axonal Wallerian Degeneration [1] | IC50 (SARM1)
1 | O=C(CCc1cccnc1)Nc1ccc2c(c1)COc1cnccc1-2 [Compound 50] | 0.1 to 1 µM | A (substantial protection (A) >50%) | 
2 | O=C1C(Cc2cccc3c2CCCC3)CCN1c1ccc2c(c1)COc1cnccc1-2 (stereo not drawn) [Compound 56] | 1 to 10 µM | B (partial protection (B): 20% to 50%) | 
3 | O=C1C(Cc2ccc3occc3c2)CCN1c1ccc2c(c1)COc1cnccc1-2 (stereo not drawn) [Compound 57] | 0.1 to 1 µM | B (partial protection (B): 20% to 50%) | 
4 | O=C1C(Cc2ccc3ccsc3c2)CCN1c1ccc2c(c1)COc1cnccc1-2 (stereo not drawn) [Compound 58] | 1 to 10 µM | B (partial protection (B): 20% to 50%) | 
5 | O=C1C(Cc2cc3ccccc3o2)CCN1c1ccc2c(c1)COc1cnccc1-2 (stereo not drawn) [Compound 59] | 1 to 10 µM | B (partial protection (B): 20% to 50%) | 
6 | O=C1C(Cc2ccncc2)CCN1c1ccc2c(c1)COc1cnccc1-2 (stereo not drawn) [Compound 62] | 0.1 to 1 µM | A (substantial protection (A) >50%) | 
7 | O=C(NCc1ccc(Cl)cc1)Nc1ccc2c(c1)COc1cnccc1-2 [Compound 63] | 0.1 to 1 µM | A (substantial protection (A) >50%) | 
8 | O=C(NCc1ccc(Cl)c(Cl)c1)Nc1ccc2c(c1)COc1cnccc1-2 [Compound 65] | 1 to 10 µM | B (partial protection (B): 20% to 50%) | 
9 | O=C(NCc1cc(F)c(F)c(F)c1)Nc1ccc2c(c1)COc1cnccc1-2 [Compound 67] | < 0.1 µM | A (substantial protection (A) >50%) | 
10 | O=C(NCc1ccc(Cl)c(F)c1)Nc1ccc2c(c1)COc1cnccc1-2 [Compound 68] | 0.1 to 1 µM | A (substantial protection (A) >50%) | 
11 | N#Cc1ccc(CNC(=O)Nc2ccc3c(c2)COc2cnccc2-3)cc1 [Compound 70] | 1 to 10 µM | B (partial protection (B): 20% to 50%) | 
12 | O=C(NCc1ccccc1)Nc1ccc2c(c1)COc1cnccc1-2 [Compound 71] | 1 to 10 µM | B (partial protection (B): 20% to 50%) | 
13 | Cc1ccc(CNC(=O)Nc2ccc3c(c2)COc2cnccc2-3)cc1 [Compound 72] | 0.1 to 1 µM | B (partial protection (B): 20% to 50%) | 
14 | CC(Cc1ccc(F)cc1)C(=O)Nc1ccc2c(c1)COc1cnccc1-2 (stereo not drawn) [Compound 73] | 0.1 to 1 µM | A (substantial protection (A) >50%) | 
15 | O=C(COc1ccc(F)cc1)Nc1ccc2c(c1)COc1cnccc1-2 [Compound 74] | < 0.1 µM | B (partial protection (B): 20% to 50%) | 
16 | O=C(CNc1ccc(F)cc1)Nc1ccc2c(c1)COc1cnccc1-2 [Compound 75] | < 0.1 µM | B (partial protection (B): 20% to 50%) | 
17 | O=C(CC1CCc2ccccc21)Nc1ccc2c(c1)COc1cnccc1-2 (stereo not drawn) [Compound 76] | 0.1 to 1 µM | A (substantial protection (A) >50%) | 

Row | Compound | IC50 (SARM1; read-out: IC50) | Degree of Protection Against Axonal Wallerian Degeneration [1] | IC50 (SARM1)
18 | Fc1ccc(CNC(=S)Nc2ccc3c(c2)COc2cnccc2-3)cc1 [Compound 77, 1-(4-fluorobenzyl)-3-(6H-isochromeno[3,4-c]pyridin-8-yl)thiourea] |  | B (partial protection (B): 20% to 50%) | < 0.1 µM
19 | COc1ccc(CCC(=O)Nc2ccc3c(c2)COc2cnccc2-3)cc1 [Compound 78] | 0.1 to 1 µM | A (substantial protection (A) >50%) | 
20 | O=C(CCc1c(F)c(F)c(F)c(F)c1F)Nc1ccc2c(c1)COc1cnccc1-2 [Compound 80] | < 0.1 µM | A (substantial protection (A) >50%) | 
21 | O=C(CCc1ccc(Cl)cc1)Nc1cnc2c(c1)COc1cnccc1-2 [Compound 84] | < 0.1 µM | B (partial protection (B): 20% to 50%) | 
22 | O=C(CCc1ccc(F)c(F)c1)Nc1cnc2c(c1)COc1cnccc1-2 [Compound 87] | < 0.1 µM | A (substantial protection (A) >50%) | 
23 | O=C(CCc1ccc(F)cc1)Nc1cnc2c(c1)COc1cnccc1-2 [Compound 91, 3-(4-fluorophenyl)-N-(5H-pyrano[4,5-b:2,3-c']dipyridin-3-yl)propanamide] | < 0.1 µM | A (substantial protection (A) >50%) | 
24 | O=C(CCc1cccc(F)c1)Nc1cnc2c(c1)COc1cnccc1-2 [Compound 94] | < 0.1 µM | A (substantial protection (A) >50%) | 
25 | O=C(CCc1ccccc1)Nc1cnc2c(c1)COc1cnccc1-2 [Compound 95] | < 0.1 µM | B (partial protection (B): 20% to 50%) | 
26 | O=C(CCc1cc(F)cc(F)c1)Nc1cnc2c(c1)COc1cnccc1-2 [Compound 96] | < 0.1 µM | A (substantial protection (A) >50%) | 
27 | O=C(NCc1ccc(F)cc1)Nc1cnc2c(c1)COc1cnccc1-2 [Compound 101, 1-(4-fluorobenzyl)-3-(5H-pyrano[4,5-b:2,3-c']dipyridin-3-yl)urea] | < 0.1 µM | A (substantial protection (A) >50%) | 
28 | O=C(CCc1ccc(F)cc1)Nc1cc2c(cn1)-c1ccncc1OC2 [Compound 112, 3-(4-fluorophenyl)-N-(5H-pyrano[2,3-c:4,5-c']dipyridin-3-yl)propanamide] | < 0.1 µM | A (substantial protection (A) >50%) | 
29 | O=C1C(Cc2ccc(F)cc2)CCN1c1cnc2c(c1)COc1cnccc1-2 (stereo not drawn) [Compound 126] | < 0.1 µM | A (substantial protection (A) >50%) | 
30 | O=C1C(Cc2ccc(F)cc2)CCN1c1cc2c(cn1)-c1ccncc1OC2 (stereo not drawn) [Compound 128] | < 0.1 µM | A (substantial protection (A) >50%) | 
31 | Cc1cncc2c1-c1ccc(NC(=O)CCc3ccc(F)cc3)cc1CO2 [Compound 130, 3-(4-fluorophenyl)-N-(1-methyl-6H-isochromeno[3,4-c]pyridin-8-yl)propanamide] | < 0.1 µM | B (partial protection (B): 20% to 50%) | 
32 | CN1Cc2cnccc2-c2ccc(N3CCC(Cc4ccc(F)cc4)C3=O)cc2C1 (stereo not drawn) [Compound 133] | 0.1 to 1 µM | B (partial protection (B): 20% to 50%) | 
33 | CN1Cc2cnccc2-c2ccc(NC(=O)CCc3ccc(F)cc3)cc2C1 [Compound 134] | 0.1 to 1 µM | B (partial protection (B): 20% to 50%) | 
